In patent US11441142B2, “FLS variant having increased activity” (KONKUK UNIVERSITY INDUSTRIAL COOPERATION CORPORATION, priority 2017, dated 2022):
Read-outs that look alike come from different tables or passages of the source.

Legend:
[1] = tested on: Lactobacillus brevis DDH (diol dehydratase), wild type, SEQ ID NO: 18; settings: substrate 2,3-butanediol, coenzyme B12; cited from earlier work
[2] = target: T1, Clostridium autoethanogenum BDH (2,3-butanediol dehydrogenase), wild type, SEQ ID NO: 14 (Clostridium autoethanogenum, UniProt A0ABM5NRF0); test: kinetic parameters of BDH; format: biochemical; settings: coenzyme NADH, pH 7.5, room temperature
T1 sequence (A0ABM5NRF0 1-351): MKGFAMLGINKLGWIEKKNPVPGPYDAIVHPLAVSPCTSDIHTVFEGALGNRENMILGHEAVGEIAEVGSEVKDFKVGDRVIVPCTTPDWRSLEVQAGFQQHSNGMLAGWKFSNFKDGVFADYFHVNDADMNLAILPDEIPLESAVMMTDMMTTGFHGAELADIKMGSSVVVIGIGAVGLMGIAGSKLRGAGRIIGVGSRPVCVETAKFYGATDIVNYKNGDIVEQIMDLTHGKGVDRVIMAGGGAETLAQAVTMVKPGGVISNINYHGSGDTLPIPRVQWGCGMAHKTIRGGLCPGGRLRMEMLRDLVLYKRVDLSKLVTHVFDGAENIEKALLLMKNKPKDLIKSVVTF

[3] = target: T2, Clostridium autoethanogenum BDH (2,3-butanediol dehydrogenase) variant BDH:S199A, SEQ ID NO: 16 (Clostridium autoethanogenum, UniProt A0ABM5NRF0, S199A); test: kinetic parameters of BDH:S199A; format: biochemical; settings: for kcat / kcat/Km: pH 7.5, room temperature
T2 sequence (A0ABM5NRF0 1-351 S199A): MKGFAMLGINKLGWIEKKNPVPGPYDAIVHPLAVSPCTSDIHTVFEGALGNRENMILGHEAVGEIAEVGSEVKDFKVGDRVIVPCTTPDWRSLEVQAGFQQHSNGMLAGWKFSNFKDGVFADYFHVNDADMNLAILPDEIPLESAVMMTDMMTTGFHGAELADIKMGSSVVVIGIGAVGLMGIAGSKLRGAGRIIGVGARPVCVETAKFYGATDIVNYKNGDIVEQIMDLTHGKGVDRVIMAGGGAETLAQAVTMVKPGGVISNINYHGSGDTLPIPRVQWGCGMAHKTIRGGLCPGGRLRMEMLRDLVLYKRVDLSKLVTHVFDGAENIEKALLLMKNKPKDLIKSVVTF
Method: (§1) The kinetic parameters of EtDH and EtDH:D46G were identified by reacting the EtDH and EtDH:D46G with a reaction mixture containing 100 mM glycine-NaOH buffer solution (pH 9.5), 5 mM Mg^2+, 3 mM NAD^+/NADP^+ and 0.5 to 100 mM ethanol at room temperature. The kinetic parameters of FLS and variants thereof were identified by reacting FLS and variants thereof with a reaction mixture containing 100 mM phosphate buffer solution (pH 8.0), 1 mM Mg^+, 0.1 mM TPP and 0.5 to 20 mM acetaldehyde at room temperature. The kinetic parameters of BDH and BDH:S199A were identified by reacting BDH and BDH:S199A with a reaction mixture containing 50 mM Tris-HCl buffer solution (pH 7.5), 0.2 mM NADPH, 1 mM DTT; 0.5 to 100 mM acetoin or 0.5 to 10 mM butanone at room temperature. The Km and kcat values were identified using nonlinear regression fitting of the Michaelis-Menten equation and the fitting were repeated three times.
(§2) In order to compare the catalytic efficiencies via measurement of kinetic parameters of cascade enzymes and variants thereof in accordance with the present disclosure, the following experiment was performed. Specifically, the kinetic parameters of EtDH and EtDH:D46G were identified by reacting EtDH and EtDH:D46G with a reaction mixture containing 100 mM glycine-NaOH buffer solution (pH 9.5), 5 mM Mg^2+, 3 mM NAD^+/NADP^+ and 0.5 to 100 mM ethanol at room temperature. The kinetic parameters of FLS and variants thereof were identified by reacting FLS and variants thereof with a reaction mixture containing 100 mM phosphate buffer solution (pH 8.0), 1 mM Mg^+, 0.1 mM TPP and 0.5 to 20 mM acetaldehyde at room temperature. The kinetic parameters of BDH and BDH:S199A were identified by reacting BDH and BDH:S199A with a reaction mixture containing 50 mM Tris-HCl buffer solution (pH 7.5), 0.2 mM NADPH, 1 mM DTT; and 0.5 to 100 mM acetoin or 0.5 to 10 mM butanone at room temperature. Km and kcat values as substrate affinity were identified using nonlinear regression fitting of the Michaelis-Menten equation and the fitting were repeated three times. The test results of DDH and NOX were compared with previous results [(S. Kwak, et al., Bioresource Technol., 2013, 135, 432), and (M. Kopke, et al., Appl. Environ. Microbiol., 2014, 80, 3394)].

[4] = tested on: Cupriavidus necator EtDH (ethanol dehydrogenase) variant EtDH:D46G, SEQ ID NO: 6; settings: pH 9.5, room temperature
Method: as §1, §2

[5] = tested on: Cupriavidus necator EtDH (ethanol dehydrogenase), wild type, SEQ ID NO: 4; settings: substrate ethanol, pH 9.5, room temperature
Method: as §1, §2

[6] = tested on: Lactobacillus rhamnosus NOX (NADH oxidase), SEQ ID NO: 2; settings: substrate O2, coenzyme NADH; cited from earlier work
[7] = substrate: CCC(C)=O; test: kinetic parameters of BDH; format: biochemical, Clostridium autoethanogenum; settings: other: substrate butanone, coenzyme NADPH (0.2 mM), pH 7.5, room temperature
[8] = substrate: CC(=O)C(C)O; test: kinetic parameters of BDH; format: biochemical, Clostridium autoethanogenum; settings: other: substrate acetoin, coenzyme NADPH (0.2 mM), pH 7.5, room temperature
[9] = substrate: CCC(C)=O; test: kinetic parameters of BDH:S199A; format: biochemical, Clostridium autoethanogenum; settings: other: substrate butanone, coenzyme NADPH (0.2 mM), pH 7.5, room temperature
[10] = substrate acetoin, coenzyme NADH
[11] = substrate acetoin, coenzyme NADPH (0.2 mM)
[12] = substrate butanone, coenzyme NADH
[13] = second line of EtDH:D46G, coenzyme printed NAD^+
[14] = substrate ethanol, coenzyme NAD^+ (3 mM)

## C[C@H](O)[C@@H](C)O [2,3-butanediol]
[1]
  Km: 10400 µM
  kcat: 35 s⁻¹
  kcat/Km: 3400 M⁻¹ s⁻¹

## CC(=O)C(C)O (stereo not shown) [Acetoin]
[2]; substrate acetoin
  kcat: 0 s⁻¹
  kcat/Km: 0 M⁻¹ s⁻¹
[3]; [10]
  kcat: 0 s⁻¹
  kcat/Km: 0 M⁻¹ s⁻¹
[3]; [11]
  kcat: 224.3 ± 9.72 s⁻¹
  kcat/Km: 19310 M⁻¹ s⁻¹

## CCC(C)=O [Butanone]
[2]; substrate butanone
  kcat: 0 s⁻¹
  kcat/Km: 0 M⁻¹ s⁻¹
[3]; [12]
  kcat: 0 s⁻¹
  kcat/Km: 0 M⁻¹ s⁻¹
[3]; substrate butanone, coenzyme NADPH
  catalytic efficiency compared to wild-type BDH: increases catalytic efficiency

## CCO [Ethanol]
[4]; [13]
  Km: 600 ± 20 µM
  kcat: 0.99 ± 0.03 s⁻¹
  kcat/Km: 1650 M⁻¹ s⁻¹
[4]; [14]
  Km: 570 ± 30 µM
  kcat: 5.85 ± 0.08 s⁻¹
  kcat/Km: 9970 M⁻¹ s⁻¹
[5]; coenzyme NADP^+ (3 mM)
  kcat: 0 s⁻¹
  kcat/Km: 0 M⁻¹ s⁻¹
[5]; coenzyme NAD^+ (3 mM)
  Km: 370 ± 50 µM
  kcat: 6.28 ± 0.11 s⁻¹
  kcat/Km: 17090 M⁻¹ s⁻¹

## O=O [O2]
[6]
  kcat: 218.7 s⁻¹
  kcat/Km: 3.77e+07 M⁻¹ s⁻¹

B1: Clostridium autoethanogenum BDH (2,3-butanediol dehydrogenase), wild type, SEQ ID NO: 14 (Clostridium autoethanogenum DSM 10061) (protein)
chain: MKGFAMLGINKLGWIEKKNPVPGPYDAIVHPLAVSPCTSDIHTVFEGALGNRENMILGHEAVGEIAEVGSEVKDFKVGDRVIVPCTTPDWRSLEVQAGFQQHSNGMLAGWKFSNFKDGVFADYFHVNDADMNLAILPDEIPLESAVMMTDMMTTGFHGAELADIKMGSSVVVIGIGAVGLMGIAGSKLRGAGRIIGVGSRPVCVETAKFYGATDIVNYKNGDIVEQIMDLTHGKGVDRVIMAGGGAETLAQAVTMVKPGGVISNINYHGSGDTLPIPRVQWGCGMAHKTIRGGLCPGGRLRMEMLRDLVLYKRVDLSKLVTHVFDGAENIEKALLLMKNKPKDLIKSVVTF
[7]
  Km: 1940 ± 50 µM
  kcat: 29.9 ± 1.02 s⁻¹
  kcat/Km: 15400 M⁻¹ s⁻¹
[8]
  Km: 84560 ± 7960 µM

B2: Clostridium autoethanogenum BDH (2,3-butanediol dehydrogenase) variant BDH:S199A, SEQ ID NO: 16 (Clostridium autoethanogenum DSM 10061; S199A) (protein)
chain: MKGFAMLGINKLGWIEKKNPVPGPYDAIVHPLAVSPCTSDIHTVFEGALGNRENMILGHEAVGEIAEVGSEVKDFKVGDRVIVPCTTPDWRSLEVQAGFQQHSNGMLAGWKFSNFKDGVFADYFHVNDADMNLAILPDEIPLESAVMMTDMMTTGFHGAELADIKMGSSVVVIGIGAVGLMGIAGSKLRGAGRIIGVGARPVCVETAKFYGATDIVNYKNGDIVEQIMDLTHGKGVDRVIMAGGGAETLAQAVTMVKPGGVISNINYHGSGDTLPIPRVQWGCGMAHKTIRGGLCPGGRLRMEMLRDLVLYKRVDLSKLVTHVFDGAENIEKALLLMKNKPKDLIKSVVTF
[9]
  Km: 1080 ± 90 µM
  kcat: 40.8 ± 1.42 s⁻¹
  kcat/Km: 37800 M⁻¹ s⁻¹
